Assay results taken from ChEMBL document CHEMBL1127805 (J Med Chem, 1994).

Legend:
Glutamate NMDA receptor [1] = assay: In vitro inhibition of [3H]glycine at NMDA receptor; format: protein-complex assay
Gerbillinae = assay: Compound was evaluated for neuroprotection, in gerbil seizure model in vivo through intraperitoneal route; format: functional
[2] = biological target: T1, Glutamate receptor ionotropic, NMDA 1 (Rattus norvegicus, UniProt P35439); assay: Compound was evaluated for in vitro inhibition of cortical slice at NMDA receptor
[3] = biological target: T1, Glutamate receptor ionotropic, NMDA 1; assay: Compound was evaluated for in vitro inhibition of spinal cord at NMDA receptor.
Glutamate NMDA receptor [4] = assay: Compound was evaluated for in vitro inhibition of [3H]-MK-801 at NMDA receptor.; format: protein-complex assay
Mus musculus [5] = assay: In vivo antagonist activity against seizures elicited by audiogenic administered intra peritoneally in mice; format: functional
[6] = biological target: T1, Glutamate receptor ionotropic, NMDA 1; assay: Compound was evaluated for in vitro inhibition of cGMP cerebellar slice at NMDA receptor.
Mus musculus [7] = assay: In vivo antagonist activity against seizures elicited by audiogenic administered icv in mice; format: functional
[8] = biological target: T2, Glutamate receptor ionotropic, NMDA 2C (Rattus norvegicus, UniProt Q00961); assay: Compound was evaluated for in vitro inhibition of [3H]-GABA release at NMDA receptor.
T2 sequence (Q00961 whole entry): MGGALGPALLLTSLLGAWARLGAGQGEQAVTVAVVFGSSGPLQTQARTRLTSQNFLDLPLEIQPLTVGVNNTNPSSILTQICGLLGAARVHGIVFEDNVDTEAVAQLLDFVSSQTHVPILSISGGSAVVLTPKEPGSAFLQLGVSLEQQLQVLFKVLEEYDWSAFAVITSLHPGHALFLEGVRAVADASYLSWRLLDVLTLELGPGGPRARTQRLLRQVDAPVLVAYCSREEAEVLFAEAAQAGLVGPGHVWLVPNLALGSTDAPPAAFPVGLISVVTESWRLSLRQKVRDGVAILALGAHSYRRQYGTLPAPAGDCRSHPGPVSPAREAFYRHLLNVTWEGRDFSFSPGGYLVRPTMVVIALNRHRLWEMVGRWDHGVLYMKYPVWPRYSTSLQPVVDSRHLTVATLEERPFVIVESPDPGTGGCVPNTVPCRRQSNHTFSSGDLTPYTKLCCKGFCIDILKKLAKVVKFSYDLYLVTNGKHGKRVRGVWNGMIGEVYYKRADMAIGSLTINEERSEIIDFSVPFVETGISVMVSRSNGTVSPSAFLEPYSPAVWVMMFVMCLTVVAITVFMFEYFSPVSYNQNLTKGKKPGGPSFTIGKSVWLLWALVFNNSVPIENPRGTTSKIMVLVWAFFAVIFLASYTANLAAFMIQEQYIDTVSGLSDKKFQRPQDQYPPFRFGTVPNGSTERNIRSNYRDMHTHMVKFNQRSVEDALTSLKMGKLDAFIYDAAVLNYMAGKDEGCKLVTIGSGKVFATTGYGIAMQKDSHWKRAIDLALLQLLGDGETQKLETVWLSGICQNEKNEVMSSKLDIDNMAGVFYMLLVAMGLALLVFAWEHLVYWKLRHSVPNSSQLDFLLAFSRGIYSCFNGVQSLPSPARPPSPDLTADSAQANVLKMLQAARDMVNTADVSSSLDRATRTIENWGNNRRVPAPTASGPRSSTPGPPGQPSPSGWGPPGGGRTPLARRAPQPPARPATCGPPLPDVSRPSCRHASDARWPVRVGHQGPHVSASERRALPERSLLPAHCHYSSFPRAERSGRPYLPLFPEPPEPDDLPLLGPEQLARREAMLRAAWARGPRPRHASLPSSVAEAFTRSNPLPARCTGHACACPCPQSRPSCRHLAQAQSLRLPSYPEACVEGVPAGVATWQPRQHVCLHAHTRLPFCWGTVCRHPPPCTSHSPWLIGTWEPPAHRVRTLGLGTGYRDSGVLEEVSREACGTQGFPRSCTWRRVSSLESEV

[9] = biological target: T2, Glutamate receptor ionotropic, NMDA 2C; assay: Compound was evaluated for in vitro inhibition of cortical slice release at NMDA receptor.
[10] = biological target: T1, Glutamate receptor ionotropic, NMDA 1; assay: Compound was evaluated for in vitro inhibition of [3H]L-689,560 at NMDA receptor.
Mus musculus [11] = assay: In vivo antagonist activity against seizures elicited by NMDLA in mice administered intravenously; format: functional; details: iv
[12] = biological target: T1, Glutamate receptor ionotropic, NMDA 1; assay: Compound was evaluated for in vitro inhibition of cortical neuron at NMDA receptor
Mus musculus [13] = assay: Antagonist activity in PTZ seizure model in vivo through intravenous route; format: functional
Rattus norvegicus = assay: Antagonist activity for neuroprotection, in rat MCAO in vivo through intravenous bolus+infusion route
Mus musculus [14] = assay: In vivo antagonist activity against seizures elicited by NMDA in mice administered perorally; format: functional; details: po
Mus musculus [15] = assay: Antagonist activity in electroshock model in vivo through intravenous route; format: functional
Mus musculus [16] = assay: In vivo antagonist activity against seizures elicited by audiogenic, administered perorally in mice; format: functional; details: po
Mus musculus [17] = assay: In vivo antagonist activity against seizures elicited by audiogenic, administered intra peritoneally in mice; format: functional
Mus musculus [18] = assay: Compound was evaluated for elevation of cGMP in vivo through subcutaneous route; format: functional; details: sc
Mus musculus [19] = assay: Compound was evaluated for passive avoidance in vivo through intraperitoneal route; format: functional; details: ip
Mus musculus [20] = assay: Antagonist activity in electroshock in vivo through intravenous route; format: functional
[21] = biological target: T1, Glutamate receptor ionotropic, NMDA 1; assay: Compound was evaluated for in vitro inhibition of oocytes at NMDA receptor.; format: cell-based, frog; details: oocyte

How did the IC50 (Glutamate NMDA receptor [1]) turn out when `O=c1[nH][nH]c(=O)c2c(O)c3c(Cl)cc(Cl)cc3nc12` was run?
The IC50 was 100 nM.

And the MED50 (Gerbillinae)?
The MED50 was 10 mg/kg.

`O=C(O)CSc1c(C(=O)O)[nH]c2cc(Cl)cc(Cl)c12` was tested. Which EC50 [2] did it give?
The EC50 was 140000 nM.

For `O=C(C[C@@H]1CCc2cc(Br)cc3[nH]c(=O)c(=O)n1c23)Nc1ccccc1`, which IC50 (Glutamate NMDA receptor [1]) is on record?
The IC50 was 2.6 nM.

Which IC50 (Glutamate NMDA receptor [1]) does the source give for `O=c1cc(O)c2c(Cl)cc(Cl)cc2[nH]c1=O` here?
The IC50 was 31 nM.

For `Oc1ccc(-c2c(O)nc3cc(Cl)cc(Cl)c3c2O)cc1`, which IC50 [3] is on record?
Its IC50 is 2100 nM.

What about the IC50 (Glutamate NMDA receptor [1]) of the same molecule?
Its IC50 is 11 nM.

Which EC50 (Glutamate NMDA receptor [4]) does the source give for `NC1(C(=O)O)CC1` [1-Aminocyclopropane carboxylic acid] here?
Its EC50 is 140 nM.

What about the IC50 (Glutamate NMDA receptor [1]) of the same molecule?
The IC50 was 40 nM.

`O=C(O)CCc1c(C(=O)O)[nH]c2cc(Cl)cc(Cl)c12` was tested. Which ED50 (Mus musculus [5]) did it give?
The ED50 was 100 mg/kg.

What about the IC50 [6] of the same molecule?
The IC50 was 2700 nM.

And the ED50 (Mus musculus [7])?
Its ED50 is 0.09 µg.

For `O=[N+]([O-])c1cc([N+](=O)[O-])c2nc(O)c(O)nc2c1`, which EC50 [8] is on record?
The EC50 was 400 nM.

And the IC50 [9]?
Its IC50 is 400 nM.

And the IC50 [10]?
Its IC50 is 170 nM.

And the IC50 (Glutamate NMDA receptor [1])?
The IC50 was 1000 nM.

What does the source list for `NC(Cc1ccc(CC(=O)N[C@H]2C[C@H](C(=O)O)Nc3cc(Cl)cc(Cl)c32)cc1)C(=O)O` (some centres undefined)?
ED50 (Mus musculus [5]): 29 mg/kg; ED50 (Mus musculus [7]): 0.5

For `CN(C(=O)c1ccccc1)c1c(C(=O)O)[nH]c2cc(Cl)ccc12`, which IC50 (Glutamate NMDA receptor [1]) is on record?
The IC50 was 110 nM.

`NCc1ccc(NC(=O)CCc2c(C(=O)O)[nH]c3cc(Cl)cc(Cl)c23)cc1` was tested. Which IC50 (Glutamate NMDA receptor [1]) did it give?
The IC50 was 27 nM.

How did the IC50 (Glutamate NMDA receptor [1]) turn out when `O=C(O)c1nc2cc(Cl)c(Cl)cc2nc1O` [6,7-DICHLORO-3-HYDROXY-2-QUINOXALINECARBOXYLIC ACID] was run?
The IC50 was 460 nM.

Which results are given for `C[C@@H]1CN(O)C(=O)[C@@H]1N`?
ED50 (Mus musculus [11]): 20 mg/kg; ED50 (Mus musculus [5]): 5.1 mg/kg; Ki [12]: 650 nM; IC50 (Glutamate NMDA receptor [1]): 1400 nM; ED50 (Mus musculus [13]): 13 mg/kg; ED50 (Rattus norvegicus): 13.5 mg/kg; ED50 (Mus musculus [14]): 44 mg/kg; ED50 (Mus musculus [15]): 26 mg/kg

With `O=c1[nH]c2cc(Cl)ccc2c(O)c1-c1cccc(Oc2ccsc2)c1` as the molecule, how does the ED50 (Mus musculus [16]) read?
The ED50 was 0.9 mg/kg.

What about the IC50 (Glutamate NMDA receptor [1]) of the same molecule?
Its IC50 is 1.4 nM.

And the ED50 (Mus musculus [17])?
Its ED50 is 0.8 mg/kg.

Which results are given for `N[C@@H]1CONC1=O` [CYCLOSERINE]?
ED50 (Mus musculus [18]): 1.25 mg/kg; ED50 (Mus musculus [19]): 3 mg/kg

With `COC(=O)[C@H]1C[C@H](NC(=O)Cc2ccc(CN)cc2)c2c(Cl)cc(Cl)cc2N1` as the molecule, how does the ED50 (Mus musculus [5]) read?
Its ED50 is 32 mg/kg.

`NCc1ccc(CC(=O)N[C@H]2C[C@H](C(=O)O)Nc3cc(Cl)cc(Cl)c32)cc1` was tested. Which ED50 (Mus musculus [5]) did it give?
Its ED50 is 39 mg/kg.

And the ED50 (Mus musculus [7])?
Its ED50 is 3.5.

With `O=c1[nH]c2cc([N+](=O)[O-])c([N+](=O)[O-])cc2[nH]c1=O` [DNQX] as the molecule, how does the IC50 (Glutamate NMDA receptor [1]) read?
The IC50 was 1300 nM.

What does the source list for `O=C(NS(=O)(=O)c1ccccc1)c1nc2cc(Cl)c(Cl)cc2[nH]c1=O`?
ED50 (Mus musculus [20]): > 100 mg/kg; IC50 [2]: 11000 nM; IC50 (Glutamate NMDA receptor [1]): 120 nM

For `O=C(O)C1Nc2cc(Cl)cc(Cl)c2S(=O)(=O)N1Cc1cccc(Br)c1` (centres undefined), which IC50 (Glutamate NMDA receptor [1]) is on record?
The IC50 was 8 nM.

How did the IC50 (Glutamate NMDA receptor [1]) turn out when `NC1(C(=O)O)CCC1` [1-AMINOCYCLOBUTANE CARBOXYLIC ACID] was run?
Its IC50 is 19000 nM.

What about the IC50 [21] of the same molecule?
The IC50 was 18500 nM.
